Tested on: 292921-168-R-J2-PDC complex spheroid viability
Experiment: Anticancer human tumor 292921-168-R-J2-PDC patient-derived pancreatic carcinoma cell line growth inhibition
Settings: for IC50: curve of first compound; for viability, T/C: stronger effect = lower value
In short: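 Complex spheroids of tumor cells with HUVEC and human MSCs, exposed to iadademstat combined with other agents. Each agent tested in half-log steps from near clinical Cmax (else 10 microM top), DMSO ≤0.25%.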

[1] = second compound 0.1 µM, first compound 0.000316 µM
[2] = second compound 0.1 µM, first compound 0.001 µM
[3] = second compound 0.1 µM, first compound 0.00316 µM
[4] = second compound 0.1 µM, first compound 0.01 µM
[5] = second compound 0.1 µM, first compound 0.0316 µM
[6] = second compound 0.1 µM, first compound 0.1 µM
[7] = second compound 0.316 µM, first compound 0.000316 µM
[8] = second compound 0.316 µM, first compound 0.001 µM
[9] = second compound 0.316 µM, first compound 0.00316 µM
[10] = second compound 0.316 µM, first compound 0.01 µM
[11] = second compound 0.316 µM, first compound 0.0316 µM
[12] = second compound 0.316 µM, first compound 0.1 µM
[13] = second compound 1 µM, first compound 0.000316 µM
[14] = second compound 1 µM, first compound 0.001 µM
[15] = second compound 1 µM, first compound 0.00316 µM
[16] = second compound 1 µM, first compound 0.01 µM
[17] = second compound 1 µM, first compound 0.0316 µM
[18] = second compound 1 µM, first compound 0.1 µM
[19] = second compound 3.16 µM, first compound 0.000316 µM
[20] = second compound 3.16 µM, first compound 0.001 µM
[21] = second compound 3.16 µM, first compound 0.00316 µM
[22] = second compound 3.16 µM, first compound 0.01 µM
[23] = second compound 3.16 µM, first compound 0.0316 µM
[24] = second compound 3.16 µM, first compound 0.1 µM
[25] = second compound 10 µM, first compound 0.000316 µM
[26] = second compound 10 µM, first compound 0.001 µM
[27] = second compound 10 µM, first compound 0.00316 µM
[28] = second compound 10 µM, first compound 0.01 µM
[29] = second compound 10 µM, first compound 0.0316 µM
[30] = second compound 10 µM, first compound 0.1 µM
[31] = second compound 0.1 µM, first compound 0.00949 µM
[32] = second compound 0.1 µM, first compound 0.03 µM
[33] = second compound 0.1 µM, first compound 0.0949 µM
[34] = second compound 0.1 µM, first compound 0.3 µM
[35] = second compound 0.1 µM, first compound 0.949 µM
[36] = second compound 0.1 µM, first compound 3 µM
[37] = second compound 0.316 µM, first compound 0.00949 µM
[38] = second compound 0.316 µM, first compound 0.03 µM
[39] = second compound 0.316 µM, first compound 0.0949 µM
[40] = second compound 0.316 µM, first compound 0.3 µM
[41] = second compound 0.316 µM, first compound 0.949 µM
[42] = second compound 0.316 µM, first compound 3 µM
[43] = second compound 1 µM, first compound 0.00949 µM
[44] = second compound 1 µM, first compound 0.03 µM
[45] = second compound 1 µM, first compound 0.0949 µM
[46] = second compound 1 µM, first compound 0.3 µM
[47] = second compound 1 µM, first compound 0.949 µM
[48] = second compound 1 µM, first compound 3 µM
[49] = second compound 3.16 µM, first compound 0.00949 µM
[50] = second compound 3.16 µM, first compound 0.03 µM
[51] = second compound 3.16 µM, first compound 0.0949 µM
[52] = second compound 3.16 µM, first compound 0.3 µM
[53] = second compound 3.16 µM, first compound 0.949 µM
[54] = second compound 3.16 µM, first compound 3 µM
[55] = second compound 10 µM, first compound 0.00949 µM
[56] = second compound 10 µM, first compound 0.03 µM
[57] = second compound 10 µM, first compound 0.0949 µM
[58] = second compound 10 µM, first compound 0.3 µM
[59] = second compound 10 µM, first compound 0.949 µM
[60] = second compound 10 µM, first compound 3 µM
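Note: seven day compound exposure before luminescent viability read.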
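Throughout, for viability, T/C: 100% = DMSO vehicle control wells.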

CC(C)CC(NC(=O)CNC(=O)c1cc(Cl)ccc1Cl)B1OC(=O)CC(CC(=O)O)(C(=O)O)O1 (stereo not given) + NC1CCC(NC2CC2c2ccccc2)CC1
IC50 (second compound 0.1 µM): 4.8 nM
IC50 (second compound 0.316 µM): 4.28 nM
IC50 (second compound 1 µM): 4.66 nM
IC50 (second compound 3.16 µM): 4.25 nM
IC50 (second compound 10 µM): 4.24 nM
viability, T/C [1]: 75.8%
viability, T/C [2]: 69.4%
viability, T/C [3]: 70.9%
viability, T/C [4]: 13.4%
viability, T/C [5]: 2.33%
viability, T/C [6]: 0.79%
viability, T/C [7]: 60.9%
viability, T/C [8]: 70.9%
viability, T/C [9]: 61.9%
viability, T/C [10]: 16.1%
viability, T/C [11]: 2.1%
viability, T/C [12]: 0.69%
viability, T/C [13]: 63.8%
viability, T/C [14]: 73%
viability, T/C [15]: 66.7%
viability, T/C [16]: 17.2%
viability, T/C [17]: 2.39%
viability, T/C [18]: 0.76%
viability, T/C [19]: 54.9%
viability, T/C [20]: 67%
viability, T/C [21]: 63.5%
viability, T/C [22]: 15.9%
viability, T/C [23]: 1.7%
viability, T/C [24]: 0.63%
viability, T/C [25]: 58.6%
viability, T/C [26]: 69%
viability, T/C [27]: 63.1%
viability, T/C [28]: 11.7%
viability, T/C [29]: 1.43%
viability, T/C [30]: 0.5%

COc1cc(Nc2ncc3c(n2)-c2ccc(Cl)cc2C(c2c(F)cccc2OC)=NC3)ccc1C(=O)O + NC1CCC(NC2CC2c2ccccc2)CC1
IC50 (second compound 0.1 µM): < 3.16 nM
IC50 (second compound 0.316 µM): < 3.16 nM
IC50 (second compound 1 µM): < 3.16 nM
IC50 (second compound 3.16 µM): < 3.16 nM
IC50 (second compound 10 µM): < 3.16 nM
viability, T/C [3]: 32.5%
viability, T/C [4]: 37.7%
viability, T/C [5]: 33.5%
viability, T/C [6]: 28.6%
viability, T/C (second compound 0.1 µM, first compound 0.316 µM): 22.4%
viability, T/C (second compound 0.1 µM, first compound 1 µM): 16.5%
viability, T/C [9]: 31.7%
viability, T/C [10]: 39.2%
viability, T/C [11]: 32.5%
viability, T/C [12]: 24.6%
viability, T/C (second compound 0.316 µM, first compound 0.316 µM): 22.5%
viability, T/C (second compound 0.316 µM, first compound 1 µM): 14.3%
viability, T/C [15]: 35.6%
viability, T/C [16]: 34.7%
viability, T/C [17]: 34.8%
viability, T/C [18]: 29.3%
viability, T/C (second compound 1 µM, first compound 0.316 µM): 18.3%
viability, T/C (second compound 1 µM, first compound 1 µM): 14.3%
viability, T/C [21]: 30.2%
viability, T/C [22]: 32.6%
viability, T/C [23]: 29.4%
viability, T/C [24]: 25.9%
viability, T/C (second compound 3.16 µM, first compound 0.316 µM): 21.5%
viability, T/C (second compound 3.16 µM, first compound 1 µM): 14.9%
viability, T/C [27]: 28.3%
viability, T/C [28]: 36.8%
viability, T/C [29]: 30.9%
viability, T/C [30]: 25.2%
viability, T/C (second compound 10 µM, first compound 0.316 µM): 19.9%
viability, T/C (second compound 10 µM, first compound 1 µM): 15.3%

Cn1ncnc1C1c2n[nH]c(=O)c3cc(F)cc(c23)NC1c1ccc(F)cc1 (stereo not given) + NC1CCC(NC2CC2c2ccccc2)CC1
IC50 (second compound 0.1 µM): > 100 nM
IC50 (second compound 0.316 µM): 81.4 nM
IC50 (second compound 1 µM): > 100 nM
IC50 (second compound 3.16 µM): 28.4 nM
IC50 (second compound 10 µM): > 100 nM
viability, T/C [1]: 68.7%
viability, T/C [2]: 69%
viability, T/C [3]: 64.6%
viability, T/C [4]: 66.7%
viability, T/C [5]: 66.6%
viability, T/C [6]: 53.4%
viability, T/C [7]: 66.6%
viability, T/C [8]: 60.4%
viability, T/C [9]: 62.1%
viability, T/C [10]: 52.8%
viability, T/C [11]: 54.2%
viability, T/C [12]: 49.1%
viability, T/C [13]: 67.6%
viability, T/C [14]: 60.3%
viability, T/C [15]: 54.9%
viability, T/C [16]: 52.9%
viability, T/C [17]: 47.1%
viability, T/C [18]: 55.7%
viability, T/C [19]: 57.7%
viability, T/C [20]: 57.1%
viability, T/C [21]: 58.6%
viability, T/C [22]: 53%
viability, T/C [23]: 46.8%
viability, T/C [24]: 46.6%
viability, T/C [25]: 59%
viability, T/C [26]: 60.4%
viability, T/C [27]: 60.8%
viability, T/C [28]: 57%
viability, T/C [29]: 50.4%
viability, T/C [30]: 54.3%

NS(=O)(=O)OCC1CC(n2ccc3c(NC4CCc5ccccc54)ncnc32)CC1O (stereo not given) + NC1CCC(NC2CC2c2ccccc2)CC1
IC50 (second compound 0.1 µM): 16.8 nM
IC50 (second compound 0.316 µM): 16.7 nM
IC50 (second compound 1 µM): 16.1 nM
IC50 (second compound 3.16 µM): 15.3 nM
IC50 (second compound 10 µM): 12.8 nM
viability, T/C [31]: 83.8%
viability, T/C [32]: 15.6%
viability, T/C [33]: 3.97%
viability, T/C [34]: 1.88%
viability, T/C [35]: 1.9%
viability, T/C [36]: 2.04%
viability, T/C [37]: 83.4%
viability, T/C [38]: 15.3%
viability, T/C [39]: 4.75%
viability, T/C [40]: 3.14%
viability, T/C [41]: 2.25%
viability, T/C [42]: 1.88%
viability, T/C [43]: 77.6%
viability, T/C [44]: 17.4%
viability, T/C [45]: 4.76%
viability, T/C [46]: 2.36%
viability, T/C [47]: 2.12%
viability, T/C [48]: 1.71%
viability, T/C [49]: 72.7%
viability, T/C [50]: 18.4%
viability, T/C [51]: 4.6%
viability, T/C [52]: 2.14%
viability, T/C [53]: 1.54%
viability, T/C [54]: 1.63%
viability, T/C [55]: 62.3%
viability, T/C [56]: 15.6%
viability, T/C [57]: 4.83%
viability, T/C [58]: 2.29%
viability, T/C [59]: 1.42%
viability, T/C [60]: 0.82%

O=C(C=Cc1cccc(S(=O)(=O)Nc2ccccc2)c1)NO + NC1CCC(NC2CC2c2ccccc2)CC1
IC50 (second compound 0.1 µM): < 9.49 nM
IC50 (second compound 0.316 µM): < 9.49 nM
IC50 (second compound 1 µM): < 9.49 nM
IC50 (second compound 3.16 µM): < 9.49 nM
IC50 (second compound 10 µM): < 9.49 nM
viability, T/C [31]: 44%
viability, T/C [32]: 36.2%
viability, T/C [33]: 28.6%
viability, T/C [34]: 17.3%
viability, T/C [35]: 0.45%
viability, T/C [36]: 0.08%
viability, T/C [37]: 48.7%
viability, T/C [38]: 34.8%
viability, T/C [39]: 31.6%
viability, T/C [40]: 19.1%
viability, T/C [41]: 0.37%
viability, T/C [42]: 0.38%
viability, T/C [43]: 43.8%
viability, T/C [44]: 35.6%
viability, T/C [45]: 30.9%
viability, T/C [46]: 15.2%
viability, T/C [47]: 0.34%
viability, T/C [48]: 0.09%
viability, T/C [49]: 40%
viability, T/C [50]: 33.4%
viability, T/C [51]: 24.4%
viability, T/C [52]: 12.4%
viability, T/C [53]: 0.19%
viability, T/C [54]: 0.08%
viability, T/C [55]: 42.2%
viability, T/C [56]: 32.4%
viability, T/C [57]: 22.9%
viability, T/C [58]: 7.61%
viability, T/C [59]: 0.12%
viability, T/C [60]: 0.13%

Reference: PubChem BioAssay AID1918934 (Molecular Pharmacology Branch, DTP, NCI, 2023)
